Laboratory results from patent US10788497B2, “Method for detecting oxidising species” (ECOLE POLYTECHNIQUE, priority 2015, dated 2020).

System: EGFR (Epidermal Growth Factor Receptor)
Assay: Hydrogen peroxide production in vascular smooth muscle cells after endothelin-1 stimulation, with or without EGFR inhibition, measured with YAG:Ce and reduced GdVO4:Eu nanoparticles
Format: cell-based
Conditions: mouse vascular smooth muscle cells; 270 nM endothelin-1; AG1478 applied 30 min before stimulation and added to the observation medium
Protocol: Firstly, mammalian cells were prepared. For this purpose, mouse vascular smooth muscle cells (primary culture) were cultured in RPMI (“Roswell Park Memorial Institute” medium) containing 10% of fetal calf serum and antibiotics, in the present case penicillin and streptomycin. When confluence reaches 80%, the cells are taken and deposited on glass slides. In this particular case, 1.5×10^4 cells are typically arranged on a glass slide. The cells are then cultured on the slides for forty-eight hours in the complete culture medium, and then in a medium without serum for twenty-four hours.
In addition, a stable colloidal solution of […] with a concentration roughly equal to 1 mM is prepared. […]
Then a slide with cells loaded with nanoparticles is placed on a sample holder and 1 mL of buffered physiological medium (HBSS/1 mM HEPES) is added. […] After fifty seconds of observation, the initial medium is replaced with physiological medium containing 270 nM of endothelin-1 (ET-1) and the luminescence of individual nanoparticles is observed for several minutes on a full-field sensor (EM-CCD ImageEM camera, Hamamatsu). […]
Next, the variations in intensity of the particles observed (doped with Ce or Eu) over time are determined using image analysis or calculation software (for example Matlab). Each curve obtained is normalized, taking the first values measured for reference. […]

Structure (SMILES): COc1cc2ncnc(Nc3cccc(Cl)c3)c2cc1OC [AG1478]
- contribution of the EGFR pathway to hydrogen peroxide production (inhibited cells produce half as much hydrogen peroxide as the normal cells): 50%
